Laboratory results reported in US9586931B2 (Merck Sharp & Dohme Corp., priority 2012, dated 2017).

target: T1, recombinant human GST-Syk (Homo sapiens, UniProt P43405); assay: Homogeneous Time-Resolved Fluorescence (HTRF) assay for the recombinant human Syk enzyme; assay type: biochemical; conditions: recombinant human GST-Syk 5 pM, ATP 25 μM, 10-dose titration 10 μM to 0.508 nM; read-out: rhSYK Activity IC50
T1 construct: purchased Carna Biosciences 08-176
Description: Syk inhibition may be determined using the following assay protocol:
Homogeneous Time-Resolved Fluorescence (HTRF) assay for the recombinant human Syk enzyme: A recombinant GST-hSyk fusion protein was used to measure potency of compounds to inhibit human Syk activity. […] Final volume of the reaction was 10 μL. Phosphorylation of the peptide was allowed to proceed for 45 minutes at room temperature. To quench the reaction and detect the phosphorylated product, 2 nM of a Europium-anti-phosphotyrosine antibody (Perkin Elmer #AD0161) and 70 nM SA-APC (Perkin-Elmer #CR130-100) were added together in 15 mM Tris pH 7.5, 40 mM EDTA, 0.01% tween 20. Final volume of the quenching solution was 10 μL. The resulting HTRF signal was measured after 30 minutes on an EnVision (Perkin-Elmer) reader using a time-resolved fluorescence protocol.

Compound | IC50 [nM]
Cc1cc(Nc2nccc(C(F)F)n2)cc(-c2cn(CC3OC(=O)NC34CC4)nn2)c1 (single isomer, unassigned) [Example 7.18, 7-((4-(3-((4-(difluoromethyl)pyrimidin-2-yl)amino)-5-methylphenyl)-1H-1,2,3-triazol-1-yl)methyl)-6-oxa-4-azaspiro[2.4]heptan-5-one] | 11.7
Cc1cc(Nc2nccc(C(F)(F)F)n2)cc(-c2cn(C[C@H](O)CC#N)nn2)c1 [Example 5.98, (3R)-3-hydroxy-4-[4-(3-methyl-5-{[4-(trifluoromethyl)pyrimidin-2-yl]amino}phenyl)-1H-1,2,3-triazol-1-yl]butanenitrile] | 20
Cc1cc(Nc2nccc(C(F)(F)F)n2)cc(-c2cn(CC(=O)O)nn2)c1 [Example 5.58, [4-(3-methyl-5-{[4-(trifluoromethyl)pyrimidin-2-yl]amino}phenyl)-1H-1,2,3-triazol-1-yl]acetic acid] | 61.3
Cc1cc(Nc2cc(C(F)(F)F)ccn2)nc(-c2cn(C(C)C(O)CC#N)nn2)c1 (centres unmarked) [Example 4.10, 3-hydroxy-4-[4-(4-methyl-6-{[4-(trifluoromethyl)pyridin-2-yl]amino}pyridin-2-yl)-1H-1,2,3-triazol-1-yl]pentanenitrile] | 5.7
Cc1cc(Nc2cc(C(F)(F)F)ccn2)nc(-c2cn(C3CCC(C(=O)O)CC3)nn2)c1 (mixture of isomers) [Example 5.46, 4-[4-(4-methyl-6-{[4-(trifluoromethyl)pyridin-2-yl]amino}pyridin-2-yl)-1H-1,2,3-triazol-1-yl]cyclohexane-carboxylic acid] | 4.9
Cc1cc(Nc2cc(C(F)(F)F)ccn2)nc(-c2cn(C/C=C/c3ccncc3)nn2)c1 [Example 5.33, 4-methyl-6-{1-[(2E)-3-pyridin-4-ylprop-2-en-1-yl]-1H-1,2,3-triazol-4-yl}-N-[4-(trifluoromethyl)pyridin-2-yl]pyridin-2-amine] | 58.5
Cc1cc(Nc2nccc(C(F)F)n2)cc(-c2cn(CC3=CCC(=O)N=C3)nn2)c1 [Example 7.16, 5-((4-(3-((4-(difluoromethyl)pyrimidin-2-yl)amino)-5-methylphenyl)-1H-1,2,3-triazol-1-yl)methyl)pyridin-2(3H)-one] | 2.3
Cc1cc(Nc2nccc(C(F)(F)F)n2)cc(-c2cn(CC(O)C(F)(F)F)nn2)c1 (racemic) [Example 5.54, 1,1,1-trifluoro-3-[4-(3-methyl-5-{[4-(trifluoromethyl)pyrimidin-2-yl]amino}phenyl)-1H-1,2,3-triazol-1-yl]propan-2-ol] | 29.4
Cc1cc(Nc2cc(C(F)(F)F)ccn2)nc(-c2cn(CC(O)c3ccc(C(N)=O)cc3)nn2)c1 (centres unmarked) [Example 1.10, 4-{1-hydroxy-2-[4-(4-methyl-6-{[4-(trifluoromethyl)pyridin-2-yl]amino}pyridin-2-yl)-1H-1,2,3-triazol-1-yl]ethyl}benzamide] | 6.3
Cc1cc(Nc2nccc(C)n2)cc(-c2cn(C3CCCCC3O)nn2)c1 (single isomer, unassigned) [Example 7.21, 2-(4-{3-methyl-5-[(4-methylpyrimidin-2-yl)amino]phenyl}-1H-1,2,3-triazol-1-yl)cyclohexanol] | 69.5
Cc1cc(Nc2nccc(C(F)(F)F)n2)cc(-c2cn(CCCN3CCOCC3)nn2)c1 [Example 5.51, N-{3-mcthyl-5-[1-(3-morpholin-4-ylpropyl)-1H-1,2,3-triazol-4-yl]phenyl}-4-(trifluoromethyl)pyrimidin-2-amine] | 177
Cc1cc(Nc2ncc(F)c(C(F)F)n2)cc(-c2cn(Cc3ccc(O)nc3)nn2)c1 [Example 32, 5-((4-(3-((4-(difluoromethyl)-5-fluoropyrimidin-2-yl)amino)-5-methylphenyl)-1H-1,2,3-triazol-1-yl)methyl)pyridin-2-ol] | 6.8
CCOC(=O)Cn1cc(-c2cc(C)cc(Nc3cc(C(F)(F)F)ccn3)n2)nn1 [Example 5.100, ethyl [4-(4-methyl-6-{[4-(trifluoromethyl)pyridin-2-yl]amino}pyridin-2-yl)-1H-1,2,3-triazol-1-yl]acetate] | 27.7
Cc1cc(Nc2nccc(C(F)F)n2)cc(-c2cn(CC3OC(=O)NC3C)nn2)c1 (single isomer, unassigned) [Example 7.41, 5-{[4-(3-{[4-(difluoromethyl)pyrimidin-2-yl]amino}-5-methylphenyl)-1H-1,2,3-triazol-1-yl]methyl}-4-methyl-1,3-oxazolidin-2-one] | 12.8
Cc1cc(Nc2nccc(C(F)(F)F)n2)cc(-c2cn(C[C@H](C)CO)nn2)c1 [Example 5.72, (2S)-2-methyl-3-[4-(3-methyl-5-{[4-(trifluoromethyl)pyrimidin-2-yl]amino}phenyl)-1H-1,2,3-triazol-1-yl]propan-1-ol] | 38.1
Cc1cc(Nc2nccc(C(F)(F)F)n2)cc(-c2cn(CC(=O)NC(C)(C)C)nn2)c1 [Example 5.70, N-tert-butyl-2-[4-(3-methyl-5-{[4-(trifluoromethyl)pyrimidin-2-yl]amino}phenyl)-1H-1,2,3-triazol-1-yl]acetamide] | 183

More lines, now with the values ahead:

IC50 [nM] | Compound
2 | Cc1cc(Nc2nccc(C)n2)cc(-c2cn(C[C@](C)(O)CO)nn2)c1 (single isomer, unassigned) [Example 21.2, 2-methyl-3-(4-(3-methyl-5-((4-methylpyrimidin-2-yl)amino)phenyl)-1H-1,2,3-triazol-1-yl)propane-1,2-diol]
88.5 | Cc1cc(Nc2ncc(Cl)c(C)n2)cc(-c2cn(CC(C)(O)C(C)(C)O)nn2)c1 (centres unmarked) [Example 21.30, 1-(4-{3-[(5-chloro-4-methylpyrimidin-2-yl)amino]-5-methylphenyl}-1H-1,2,3-triazol-1-yl)-2,3-dimethylbutane-2,3-diol]
850 | Cc1cc(Nc2nccc(C(F)(F)F)n2)cc(-n2cc([C@]3(O)CC[C@@H](C(=O)OC(C)(C)C)CC3)nn2)c1 [Example 15.6, tert-butyl cis-4-hydroxy-4-[1-(3-methyl-5-{[4-(trifluoromethyl)pyrimidin-2-yl]amino}phenyl)-1H-1,2,3-triazol-4-yl]cyclohexanecarboxylate]
232 | Cc1cc(Nc2nccc(C(F)(F)F)n2)cc(-n2cc([C@]3(O)CC[C@H](C(=O)O)CC3)nn2)c1 [Example 15.3, trans-4-hydroxy-4-[1-(3-methyl-5-{[4-(trifluoromethyl)pyrimidin-2-yl]amino}phenyl)-1H-1,2,3-triazol-4-yl]cyclohexanecarboxylic acid]
17.7 | Cc1cc(Nc2cc(C(F)(F)F)ccn2)nc(-c2cn(C3CCCCC(O)C3O)nn2)c1 (single isomer, unassigned) [Example 10.2, 3-[4-(4-methyl-6-{[4-(trifluoromethyl)pyridin-2-yl]amino}pyridin-2-yl)-1H-1,2,3-triazol-1-yl]cycloheptane-1,2-diol]
1.7 | Cc1cc(Nc2nccc(C(F)F)n2)cc(-c2cn(CC3CNCCO3)nn2)c1 (single isomer, unassigned) [Example 22.2, 4-(difluoromethyl)-N-(3-methyl-5-(1-(morpholin-2-ylmethyl)-1H-1,2,3-triazol-4-yl)phenyl) pyrimidin-2-amine]
650 | Cc1cc(Nc2cc(C(F)(F)F)ccn2)nc(-c2nnc(C)n2C)c1 [Example 16.1, 6-(4,5-dimethyl-4H-1,2,4-triazol-3-yl)-4-methyl-N-[4-(trifluoromethyl)pyridin-2-yl]pyridin-2-amine]
